The record followed here is ChEMBL document CHEMBL1131675, “A new anti-tubulin agent containing the benzo[b]thiophene ring system” (1999).

For test [1], the target named is Tubulin alpha chain (Sus scrofa) (UniProt P02550). Briefly: Percentage control on Tubulin- Dependent GTP hydrolysis was evaluated at 50 micro M concentration. It is filed as functional. Set-up: scale not given: the % may be the effect or the level left.
The target is the same in test [2]. As to the kind of experiment: Percentage control on Tubulin- Dependent GTP hydrolysis was evaluated at 10 micro M concentration. It is filed as functional. Also on record: scale not given: the % may be the effect or the level left.
For a further test, the system named is P388. As to the kind of experiment: Inhibition of murine P388 lymphocytic leukemia cell proliferation. It is filed as functional. The note with it: Mus musculus, read-out: ED50 (the source's name).
Test [3] has as its target Tubulin alpha chain (Sus scrofa) (UniProt P02550). As to the kind of experiment: Percentage inhibition of [3H]colchicine binding to tubulin was evaluated at 50 uM concentration.
The target is the same in test [4]. Briefly: Percentage control on Tubulin-Dependent GTP hydrolysis was evaluated at 10 uM concentration. It is filed as functional. Also on record: scale not given: the % may be the effect or the level left.
Test [5] has the same target. As to the kind of experiment: Percentage control on Tubulin-Dependent GTP hydrolysis was evaluated at 50 uM concentration. The class given is functional. Set-up: scale not given: the % may be the effect or the level left.

Chain of Tubulin alpha chain (Sus scrofa) (P02550 whole entry, looked up): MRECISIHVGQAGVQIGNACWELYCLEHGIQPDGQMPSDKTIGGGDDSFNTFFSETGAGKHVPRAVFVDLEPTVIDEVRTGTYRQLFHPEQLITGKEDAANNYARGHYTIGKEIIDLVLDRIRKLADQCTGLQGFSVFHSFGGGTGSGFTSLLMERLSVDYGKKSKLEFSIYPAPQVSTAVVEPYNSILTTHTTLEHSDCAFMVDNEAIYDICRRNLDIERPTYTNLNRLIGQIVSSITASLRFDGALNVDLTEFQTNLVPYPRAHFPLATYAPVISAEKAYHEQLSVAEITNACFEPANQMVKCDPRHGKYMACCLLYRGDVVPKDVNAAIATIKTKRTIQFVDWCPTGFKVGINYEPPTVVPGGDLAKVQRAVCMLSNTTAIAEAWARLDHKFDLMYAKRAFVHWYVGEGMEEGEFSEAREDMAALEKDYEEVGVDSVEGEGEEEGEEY

Regarding `COc1cc([C@@H]2c3cc4c(cc3[C@H](O)[C@H]3COC(=O)[C@H]23)OCO4)cc(OC)c1OC`, the Control came out at 31% in test [1] and 43% in test [2].
Turning to `COc1ccc(-c2sc3cc(OC)ccc3c2C(=O)c2cc(OC)c(O)c(OC)c2)cc1`, the EC50 in the test on P388 is > 100 µg/mL.
For the molecule `COc1ccc(-c2sc3cc(OC)ccc3c2C(=O)c2cc(OC)cc(OC)c2)cc1`, the EC50 in the test with P388 is > 100 µg/mL.
With `COc1ccc(/C=C\c2cc(OC)c(OC)c(OC)c2)cc1O`, the Control came to 160% in test [1] and 161% in test [2].
One may read the inhibition as the percentage by which the read-out fell short of the control. Take `COc1ccc(-c2sc3cc(OC)ccc3c2C(=O)c2cc(OC)c(OC)c(OC)c2)cc1`: the inhibition in test [3] stood at 28%. Further, the Control in test [4] was 122%; in test [5], 135%.
For `COc1ccc(-c2sc3cc(OC)ccc3c2C(=O)c2c(OC)cccc2OC)cc1`, in the test with P388, the EC50 was > 100 µg/mL.
